Data as given in publication PMC12396409, “Screening and hit evaluation of a microbial metabolite library against the pathogenic Plasmodium falciparum and Toxoplasma gondii parasites” (International Journal for Parasitology: Drugs and Drug …, 2025).
Read-outs that look alike come from different tables or passages of the source.

What was measured:
[1] = system: P. falciparum 3D7 parasites; assay: P. falciparum growth inhibition assay, 1-cycle (72 h treatment), SYBR DNA staining (library screen at 2 μg/mL and dose-response); type: cell-based, Plasmodium falciparum; conditions: for activity at 2 µg/mL: Plasmodium falciparum
[2] = system: T. gondii RH strain (RH-Tub-eYFP) tachyzoites; assay: microbe, parasite or virus in culture; type: cell-based, Toxoplasma gondii; conditions: for percent parasite growth at 2 µg/mL: Toxoplasma gondii
[3] = system: P. falciparum 3D7 parasites; assay: P. falciparum growth inhibition assay, 2-cycle (120 h treatment), delayed-death screen and dose-response; type: cell-based, Plasmodium falciparum; conditions: for activity at 2 µg/mL: Plasmodium falciparum
[4] = P. falciparum, 72 h, screen at 2 μg/mL, replicate 1
[5] = P. falciparum, 72 h, screen at 2 μg/mL, replicate 2
[6] = T. gondii, 72 h, screen at 2 μg/mL, replicate 1
[7] = T. gondii, 72 h, screen at 2 μg/mL, replicate 2
[8] = P. falciparum, 120 h, screen at 2 μg/mL, replicate 1
[9] = P. falciparum, 120 h, screen at 2 μg/mL, replicate 2
[10] = library screen at 2 μg/mL, 72 h, % growth, replicate 1
[11] = library screen at 2 μg/mL, 72 h, % growth, replicate 2
[12] = library screen at 2 μg/mL, 120 h, % growth, replicate 1
[13] = library screen at 2 μg/mL, 120 h, % growth, replicate 2

| Structure (SMILES) | Pf_72h_%Growth_Rep1 [1, 4] | Pf_72h_%Growth_Rep2 [1, 5] | Tg_72h_%Growth_Rep1 [2, 6] | Tg_72h_%Growth_Rep2 [2, 7] | Pf_120h_%Growth_Rep1 [3, 8] | Pf_120h_%Growth_Rep2 [3, 9] | Pf_72h_%Growth_Rep1 [1, 10] | Pf_72h_%Growth_Rep2 [1, 11] | Tg_72h_%Growth_Rep1 [2, 10] | Tg_72h_%Growth_Rep2 [2, 11] | Pf_120h_%Growth_Rep1 [3, 12] | Pf_120h_%Growth_Rep2 [3, 13] | further results |
| --- | --- | --- | --- | --- | --- | --- | --- | --- | --- | --- | --- | --- | --- |
| CO[C@H]1[C@H](O)C[C@@H](O[C@@H]2C[C@H](Oc3cc4cc5c(c(O)c4c(O)c3C)C(=O)[C@@H](O[C@H]3C[C@H](O[C@H]4C[C@H](O[C@H]6C[C@@](C)(O)[C@@H](OC(=O)C(C)C)[C@H](C)O6)[C@H](O)[C@@H](C)O4)[C@H](O)[C@@H](C)O3)[C@H]([C@H](OC)C(=O)[C@@H](O)[C@@H](C)O)C5)O[C@H](C)[C@H]2OC(C)=O)O[C@@H]1C [Chromomycin A2] | – | – | – | – | – | – | – | – | – | – | – | – | activity at 2 µg/mL ([1]; 3D7, 72 h, P. falciparum, 72 h, screen at 2 μg/mL, replicate 1, read-out: Pf_72h_%Growth_Rep1): 6.05%; activity at 2 µg/mL ([1]; 3D7, 72 h, P. falciparum, 72 h, screen at 2 μg/mL, replicate 2, read-out: Pf_72h_%Growth_Rep2): 1.3%; percent parasite growth at 2 µg/mL ([2]; 72 h, T. gondii, 72 h, screen at 2 μg/mL, replicate 1, read-out: Tg_72h_%Growth_Rep1): 2.51%; percent parasite growth at 2 µg/mL ([2]; 72 h, T. gondii, 72 h, screen at 2 μg/mL, replicate 2, read-out: Tg_72h_%Growth_Rep2): 1.82%; activity at 2 µg/mL ([3]; 3D7, 120 h, P. falciparum, 120 h, screen at 2 μg/mL, replicate 1, read-out: Pf_120h_%Growth_Rep1): 3.01%; activity at 2 µg/mL ([3]; 3D7, 120 h, P. falciparum, 120 h, screen at 2 μg/mL, replicate 2, read-out: Pf_120h_%Growth_Rep2): 9.04% |
| C[C@@H]1CCC[C@@H](O)CCC/C=C/c2cc(O)cc(O)c2C(=O)O1 [Zearalenol, alpha-] | 64.20% | 80.17% | 85.29% | 104.82% | 153.36% | 83.41% | – | – | – | – | – | – | – |
| C[C@H]1OC(=O)C=C[C@@H](O)[C@@H](O)CCCCCCCC[C@@H]1O [Berkeleylactone F] | – | – | – | – | – | – | 78.45% | 83.14% | 83.11% | 88.17% | 146.18% | 96.20% | – |
| CC[C@H]1C[C@@H]2CC[C@@H](O2)[C@@H](C)C(=O)O[C@H](CC)C[C@H]2CC[C@H](O2)[C@H](C)C(=O)O[C@@H](C)C[C@@H]2CC[C@@H](O2)[C@@H](C)C(=O)O[C@H](CC)C[C@H]2CC[C@H](O2)[C@H](C)C(=O)O1 [Trinactin] | 3.59% | -0.10% | 2.98% | 5.01% | 16.44% | 5.60% | – | – | – | – | – | – | – |
| C/C=C/C=C/C=C/C(=O)N[C@H]1CCCNC(=O)[C@H](C)N(C)C(=O)[C@H](C(C)C)N(C)C1=O [Aspochracin] | – | – | – | – | – | – | 109.60% | 89.28% | 82.68% | 94.06% | 147.75% | 101.25% | – |
| CO/C1=C\C(C)=C\[C@@H](C)[C@@H](O)[C@@H](C)C/C(C)=C/C=C/[C@H](OC)[C@@H]([C@@H](C)[C@@H](O)[C@H](C)[C@@]2(O)C[C@@H](O)[C@H](C)[C@@H](C(C)C)O2)OC1=O [Bafilomycin A1] | – | – | – | – | – | – | – | – | – | – | – | – | activity at 2 µg/mL ([1]; 3D7, library screen at 2 μg/mL, 72 h, % growth, replicate 1, read-out: Pf_72h_%Growth_Rep1): 3.38%; activity at 2 µg/mL ([1]; 3D7, library screen at 2 μg/mL, 72 h, % growth, replicate 2, read-out: Pf_72h_%Growth_Rep2): 2.45%; percent parasite growth at 2 µg/mL ([2]; 72 h, library screen at 2 μg/mL, 72 h, % growth, replicate 1, read-out: Tg_72h_%Growth_Rep1): -1.58%; percent parasite growth at 2 µg/mL ([2]; 72 h, library screen at 2 μg/mL, 72 h, % growth, replicate 2, read-out: Tg_72h_%Growth_Rep2): 0.71%; activity at 2 µg/mL ([3]; 3D7, library screen at 2 μg/mL, 120 h, % growth, replicate 1, read-out: Pf_120h_%Growth_Rep1): 5.49%; activity at 2 µg/mL ([3]; 3D7, library screen at 2 μg/mL, 120 h, % growth, replicate 2, read-out: Pf_120h_%Growth_Rep2): 9.47% |
| CC(=O)OC[C@]12CCC(C)=C[C@H]1O[C@@H]1[C@H](O)[C@@H](O)[C@@]2(C)[C@]12CO2 [Acetoxyscirpenol, 15-] | – | – | – | – | – | – | 9.02% | 0.50% | -2.14% | 0.34% | 8.73% | 7.76% | – |
| Cc1cc(=O)c2c(o1)-c1c(cc(O)c(O)c1C(=O)O)OC2 [Citromycetin] | 89.81% | 87.50% | 134.75% | 97.97% | 103.91% | 96.05% | – | – | – | – | – | – | – |
| CO[C@H]1C[C@H](O[C@H]2[C@H](C)O[C@@H](O[C@@H]3/C(C)=C/C[C@@H]4C[C@@H](C[C@]5(C=C[C@H](C)[C@@H](C(C)C)O5)O4)OC(=O)[C@@H]4C=C(C)[C@@H](O)[C@H]5OC/C(=C\C=C\[C@@H]3C)[C@]54O)C[C@@H]2OC)O[C@@H](C)[C@H]1NC(C)=O [Eprinomectin B1b] | – | – | – | – | – | – | – | – | – | – | – | – | Pf_72h_%Growth_Rep1 [1]: 56.32%; Pf_72h_%Growth_Rep2 [1]: 35.21%; Tg_72h_%Growth_Rep1 [2]: 157.07%; Tg_72h_%Growth_Rep2 [2]: 101.19%; Pf_120h_%Growth_Rep1 [3]: 33.01%; Pf_120h_%Growth_Rep2 [3]: 22.71% |
